Data published in the supplement of paper PMC10307832.

Experiments:
Assay in all cases: relative viability (nuclei count vs DMSO), 5 days (fraction); higher = more cells survive
[1] = compound: CS(=O)(=O)c1ccc(-c2cnc(N)c(C(=O)Nc3ccccc3)n2)cc1 [VE-821] + CCNC(=O)c1noc(-c2cc(C(C)C)c(O)cc2O)c1-c1ccc(CN2CCOCC2)cc1 [Luminespib] (partner 0.01 µM)
Outline: (§1)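 Relative viability equals treated-well nuclei counts divided by vehicle-well nuclei counts. Counts came from 4× images of lung cancer cell lines grown in 1536-well plates for 5 days after pin-tool dosing on the day after seeding. Dosing used one drug alone or a fixed anchor-drug dose plus five library-drug doses (not always all listed) in √10 steps, and values are medians of duplicate plates.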

[2] = compound: CS(=O)(=O)c1ccc(-c2cnc(N)c(C(=O)Nc3ccccc3)n2)cc1 [VE-821] + CS(=O)(=O)CCNCc1ccc(-c2ccc3ncnc(Nc4ccc(OCc5cccc(F)c5)c(Cl)c4)c3c2)o1 [Lapatinib] (partner 2 µM)
Outline: as §1

[3] = compound: CS(=O)(=O)c1ccc(-c2cnc(N)c(C(=O)Nc3ccccc3)n2)cc1 [VE-821] + NC(=O)Nc1cc(-c2cccc(F)c2)sc1C(=O)N[C@H]1CCCNC1 [AZD7762] (partner 0.2 µM)
Outline: as §1

[4] = compound: N#CC[C@H](C1CCCC1)n1cc(-c2ncnc3[nH]ccc23)cn1 [Ruxolitinib] + CS(=O)(=O)N1CCN(Cc2cc3nc(-c4cccc5[nH]ncc45)nc(N4CCOCC4)c3s2)CC1 [Pictilisib] (partner 1 µM)
Outline: as §1

| Cell Line | relative viability ([1]; first compound 0.08 µM) | relative viability ([1]; first compound 0.253 µM) | relative viability ([1]; first compound 0.8 µM) | relative viability ([1]; first compound 2.53 µM) | relative viability ([1]; first compound 8 µM) | relative viability ([2]; first compound 0.08 µM) | relative viability ([2]; first compound 0.253 µM) | relative viability ([2]; first compound 0.8 µM) | relative viability ([2]; first compound 2.53 µM) | relative viability ([2]; first compound 8 µM) | relative viability ([3]; first compound 0.08 µM) | relative viability ([3]; first compound 0.253 µM) | relative viability ([3]; first compound 0.8 µM) | relative viability ([3]; first compound 2.53 µM) | relative viability ([3]; first compound 8 µM) | relative viability ([4]; first compound 0.08 µM) | relative viability ([4]; first compound 0.253 µM) | relative viability ([4]; first compound 0.8 µM) | relative viability ([4]; first compound 2.53 µM) | relative viability ([4]; first compound 8 µM) |
| --- | --- | --- | --- | --- | --- | --- | --- | --- | --- | --- | --- | --- | --- | --- | --- | --- | --- | --- | --- | --- |
| EPLC-272H | 0.265 | 0.301 | 0.179 | 0.288 | 0.221 | 1.07 | 0.976 | 1.12 | 1.24 | 0.848 | 0.163 | 0.149 | 0.2 | 0.188 | 0.127 | 0.141 | 0.36 | 0.336 | 0.281 | 0.268 |
| NCI-H1792 | 0.462 | 0.524 | 0.367 | 0.506 | 0.359 | 1.04 | 0.964 | 0.913 | 0.966 | 0.816 | 0.665 | 0.432 | 0.328 | 0.196 | 0.135 | 0.259 | 0.289 | 0.278 | 0.197 | 0.214 |
| LXF-289 | 0.766 | 0.671 | 0.52 | 0.82 | 0.616 | 1.02 | 0.993 | 0.911 | 1.07 | 0.966 | 0.931 | 1.08 | 1.12 | 0.971 | 0.686 | 0.785 | 0.797 | 0.804 | 0.739 | 0.498 |
| NCI-H460 | 0.0302 | 0.0482 | 0.0362 | 0.0342 | 0.0308 | 1.33 | 0.996 | 0.82 | 0.729 | 0.398 | 0.568 | 0.411 | 0.217 | 0.117 | 0.0688 | 0.179 | 0.309 | 0.307 | 0.386 | 0.114 |
| NCI-H1734 | 0.199 | 0.197 | 0.208 | 0.165 | 0.193 | 1.43 | 1.04 | 1.03 | 1.16 | 0.73 | 0.4 | 0.428 | 0.334 | 0.334 | 0.184 | 0.479 | 0.417 | 0.435 | 0.37 | 0.468 |
| PC-3 [JPC-3] | 0.718 | 0.718 | 0.698 | 0.726 | 0.705 | 0.512 | 0.474 | 0.461 | 0.482 | 0.424 | 0.882 | 0.728 | 0.99 | 0.798 | 0.62 | 0.507 | 0.752 | 0.763 | 0.678 | 0.7 |
| HCC-827 | 0.599 | 0.686 | 0.277 | 0.696 | 0.489 | 0.221 | 0.201 | 0.189 | 0.201 | 0.209 | 0.178 | 0.194 | 0.169 | 0.18 | 0.189 | 0.654 | 0.973 | 0.919 | 0.906 | 0.944 |
| NCI-H2405 | 0.758 | 0.735 | 0.437 | 0.712 | 0.594 | 1.15 | 0.976 | 1.03 | 1.31 | 1.05 | 0.791 | 0.677 | 0.598 | 0.553 | 0.25 | – | 0.338 | 0.463 | 0.286 | 0.269 |
| HOP-62 | 0.966 | 0.822 | 0.981 | 0.694 | 0.596 | 1.16 | 1.03 | 0.958 | 1.06 | 0.947 | 0.906 | 0.616 | 0.406 | 0.392 | 0.19 | – | 0.743 | 0.876 | 0.63 | 0.839 |
| LCLC-97TM1 | 0.821 | 0.795 | 0.952 | 0.993 | 0.709 | 0.75 | 0.716 | 0.669 | 0.848 | 0.393 | 0.162 | 0.137 | 0.204 | 0.116 | 0.133 | 0.182 | 0.153 | 0.214 | 0.158 | 0.198 |
| NCI-H3122 | 0.111 | 0.064 | 0.0908 | 0.0825 | 0.0706 | 1.06 | 1 | 0.926 | 1.03 | 1 | 1.05 | 0.857 | 0.97 | 0.654 | 0.545 | 0.538 | 0.509 | 0.552 | 0.357 | 0.562 |
| PC-14 | 0.173 | 0.19 | 0.123 | 0.241 | 0.12 | 0.336 | 0.297 | 0.286 | 0.32 | 0.277 | 0.362 | 0.232 | 0.315 | 0.338 | 0.187 | – | 0.618 | 0.799 | 0.654 | 0.476 |
| NCI-H2170 | 0.754 | 0.623 | 0.769 | 0.585 | 0.555 | 0.289 | 0.278 | 0.256 | 0.272 | 0.272 | 0.842 | 0.766 | 0.771 | 0.394 | 0.199 | 0.36 | 0.28 | 0.418 | 0.303 | 0.253 |
| HARA | 0.956 | 0.836 | 0.579 | 0.695 | 0.448 | 0.825 | 0.559 | 0.826 | 0.757 | 0.47 | 0.256 | 0.315 | 0.145 | 0.158 | 0.249 | 0.467 | 0.472 | 0.404 | 0.426 | 0.328 |
| NCI-H1395 | 0.7 | 0.677 | 0.704 | 0.636 | 0.525 | 0.902 | 1.15 | 0.903 | 0.987 | 0.768 | 0.379 | 0.391 | 0.369 | 0.366 | 0.362 | – | 0.553 | 0.645 | 0.584 | 0.601 |
| EMC-BAC-2 | 1.36 | 1.15 | 1.09 | 1.11 | 0.931 | 1.04 | 0.902 | 0.97 | 1.01 | 0.873 | 1.15 | 1.02 | 1.12 | 1.19 | 0.587 | 0.534 | 0.495 | 0.57 | 0.495 | 0.384 |
